Test results as given in US20160235752A1, “COMPOSITIONS, METHODS OF USE, AND METHODS OF TREATMENT” (THE UNIVERSITY OF NEW ORLEANS, priority 2013, published 2016).
In brackets after ≈: the same amount, converted by molar mass.

Experiments:
[1] = system: Candida albicans (ATCC no. 10231); assay: MIC determination by broth microdilution (NCCLS), visual scoring; type: cell-based; conditions: for MIC80: Candida albicans, ATCC10231, read-out: MIC80 C. albicans
Outline: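 NCCLS broth microdilution in RPMI 1640 with 10 mM HEPES, final compound 0.5–128 μg/mL, DMSO ≤1%. Inoculum from 0.5 McFarland stock diluted 1:50; incubated 35 °C for 48–72 h. MIC scored visually as lowest concentration giving ~80% growth reduction versus drug-free wells.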

[2] = system: Candida glabrata (ATCC no. 48435); assay: as above; type: cell-based; conditions: for MIC80: Nakaseomyces glabratus, ATCC48435, read-out: MIC80 C. glabrata
Experimental: The antifungal activity of the 2,4,6-pyrimidinetrione analogs shown in Schemes 2-6 were evaluated in vitro using Candida albicans (ATCC no. 10231) and Candida glabrata (ATCC no 48435). All assays were done in accordance with NCCLS reference documents^29. The results of these screenings are summarized in Tables 1-9 as the minimal inhibitory concentrations that inhibited more than 80% fungal growth as compared to the positive controls in 1% DMSO and RPMI media. All MIC screens were done using a visual scoring method as opposed to spectroscopic methods of analysis, due to the physical properties of many of the compounds altering their absorbance spectra relative to the positive, negative and drug controls.
None of the compounds tested over the course of these studies were soluble in water and DMSO was used to dilute each compound tested. Master stock concentrations of all tested compounds were prepared to ensure that the maximum final concentration of DMSO was 1% or less. Subsequent 2-fold serial dilutions were made using sterile water to a final concentration of 1280-5.00 μg/ml. A final 10-fold dilution of each drug was made by aliquotting 0.1 mL of each drug dilution into 0.9 mL of fungal suspension in RPMI 1640 media with 10 mM HEPES buffer added (see methodology below), giving final concentrations tested in the range of 128-0.5 μg/ml.
Antifungal susceptibility studies and minimal inhibitory concentrations (MIC) values for Candida albicans (ATCC no. 10231) and Candida glabrata (ATCC no. 48435) were determined by the broth microdilution technique in accordance with NCCLS reference documents. Microdilution panels ranged from 0.5 to 128 μg/mL. All organisms were subcultured on Sabouraud agar and passaged to ensure purity and viability. The initiating inocula were prepared by picking 5-7 isolated colonies ˜1 mm in diameter from freshly prepared YM agar plates. Colonies were resuspended in sterile water, vortexed and the cell density was adjusted spectrophotometrically to the transmittance of a 0.5 McFarland standard at a wavelength of 530 nm, to yield a stock suspension of 1×10^6-5×10^6 cells/mL. The stock was allowed to hydrate for 30 minutes at room temperature. A working suspension was then made by diluting the stock 1:50 with RPMI 1640 media containing HEPES buffer. The working suspension was used for all assays. The plates were incubated at 35° C. for 48-72 hours in a humid atmosphere. Growth was scored visually. MIC values are defined as the lowest concentration of agent that prevents any discernible growth, ˜80% reduction of growth, as compared with drug-free control wells. All assays were run in parallel using either fluconazole or amphotericin B at the NCCLS recommended concentrations^29 as a drug control (Sigma-Aldrich).

[3] = Table 3, 5-Alkylated Pyrimidinetriones
[4] = Table 5, Schiff Bases of 5-acylpyrimidinetriones
[5] = Table 7, Phenylhydrazones of 5-Acylpyrimidinetriones
[6] = Table 1, 5-Acyl-2,4,6-pyrimidinetriones, >80% growth inhibition, RPMI, 1% DMSO
[7] = Table 8, N-Acylhydrazones of 5-Acylpyrimidinetriones

Compound: O=C1NC(=O)C(Cc2ccc3ccccc3c2)C(=O)N1 [BA69]
- MIC80 C. albicans [1, 3]: — (none of the 5-acyl-2,4,6-pyrimidinetriones, 5-alkylated pyrimidinetriones or the 5,5-dialkylated pyrimidinetriones showed antifungal activity through 125 μg/mL)
- MIC80 C. glabrata [2, 3]: — (none of the 5-acyl-2,4,6-pyrimidinetriones, 5-alkylated pyrimidinetriones or the 5,5-dialkylated pyrimidinetriones showed antifungal activity through 125 μg/mL)

Compound: CC(=Nc1ccncc1)C1C(=O)NC(=O)NC1=O [BA88]
- MIC80 C. albicans [1, 4]: — (none of the 5-acyl-2,4,6-pyrimidinetriones, 5-alkylated pyrimidinetriones or the 5,5-dialkylated pyrimidinetriones showed antifungal activity through 125 μg/mL)
- MIC80 C. glabrata [2, 4]: — (none of the 5-acyl-2,4,6-pyrimidinetriones, 5-alkylated pyrimidinetriones or the 5,5-dialkylated pyrimidinetriones showed antifungal activity through 125 μg/mL)

Compound: CN1C(=O)C(C(=NNc2ccc(C(=O)O)cc2)c2ccccc2)C(=O)N(C)C1=O [BA33]
- MIC80 C. albicans [1, 5]: — (none of the 5-acyl-2,4,6-pyrimidinetriones, 5-alkylated pyrimidinetriones or the 5,5-dialkylated pyrimidinetriones showed antifungal activity through 125 μg/mL)
- MIC80 C. glabrata [2, 5]: — (none of the 5-acyl-2,4,6-pyrimidinetriones, 5-alkylated pyrimidinetriones or the 5,5-dialkylated pyrimidinetriones showed antifungal activity through 125 μg/mL)

Compound: CN1C(=O)C(C(=O)c2ccc([N+](=O)[O-])cc2)C(=O)N(C)C1=O [BA7]
- MIC80 C. albicans [1, 6]: — (none of the 5-acyl-2,4,6-pyrimidinetriones, 5-alkylated pyrimidinetriones or the 5,5-dialkylated pyrimidinetriones showed antifungal activity through 125 μg/mL)
- MIC80 C. glabrata [2, 6]: — (none of the 5-acyl-2,4,6-pyrimidinetriones, 5-alkylated pyrimidinetriones or the 5,5-dialkylated pyrimidinetriones showed antifungal activity through 125 μg/mL)

Compound: CN1C(=O)C(CCCc2ccccc2)C(=O)N(C)C1=O [BA67]
- MIC80 C. albicans [1, 3]: — (none of the 5-acyl-2,4,6-pyrimidinetriones, 5-alkylated pyrimidinetriones or the 5,5-dialkylated pyrimidinetriones showed antifungal activity through 125 μg/mL)
- MIC80 C. glabrata [2, 3]: — (none of the 5-acyl-2,4,6-pyrimidinetriones, 5-alkylated pyrimidinetriones or the 5,5-dialkylated pyrimidinetriones showed antifungal activity through 125 μg/mL)

Compound: O=C1NC(=O)C(C(=O)c2cccc([N+](=O)[O-])c2)C(=O)N1 [BA4]
- MIC80 C. albicans [1, 6]: — (none of the 5-acyl-2,4,6-pyrimidinetriones, 5-alkylated pyrimidinetriones or the 5,5-dialkylated pyrimidinetriones showed antifungal activity through 125 μg/mL)
- MIC80 C. glabrata [2, 6]: — (none of the 5-acyl-2,4,6-pyrimidinetriones, 5-alkylated pyrimidinetriones or the 5,5-dialkylated pyrimidinetriones showed antifungal activity through 125 μg/mL)

Compound: CN1C(=O)C(C(=O)c2cccc([N+](=O)[O-])c2)C(=O)N(C)C1=O [BA5]
- MIC80 C. albicans [1, 6]: — (none of the 5-acyl-2,4,6-pyrimidinetriones, 5-alkylated pyrimidinetriones or the 5,5-dialkylated pyrimidinetriones showed antifungal activity through 125 μg/mL)
- MIC80 C. glabrata [2, 6]: — (none of the 5-acyl-2,4,6-pyrimidinetriones, 5-alkylated pyrimidinetriones or the 5,5-dialkylated pyrimidinetriones showed antifungal activity through 125 μg/mL)

Compound: CN1C(=O)C(C=Nc2ccccc2)C(=O)N(C)C1=O [BA90]
- MIC80 C. albicans [1, 4]: — (none of the 5-acyl-2,4,6-pyrimidinetriones, 5-alkylated pyrimidinetriones or the 5,5-dialkylated pyrimidinetriones showed antifungal activity through 125 μg/mL)
- MIC80 C. glabrata [2, 4]: — (none of the 5-acyl-2,4,6-pyrimidinetriones, 5-alkylated pyrimidinetriones or the 5,5-dialkylated pyrimidinetriones showed antifungal activity through 125 μg/mL)

Compound: CN1C(=O)C(C(=O)c2cccnc2)C(=O)N(C)C1=O [BA17]
- MIC80 C. albicans [1, 6]: — (none of the 5-acyl-2,4,6-pyrimidinetriones, 5-alkylated pyrimidinetriones or the 5,5-dialkylated pyrimidinetriones showed antifungal activity through 125 μg/mL)
- MIC80 C. glabrata [2, 6]: — (none of the 5-acyl-2,4,6-pyrimidinetriones, 5-alkylated pyrimidinetriones or the 5,5-dialkylated pyrimidinetriones showed antifungal activity through 125 μg/mL)

Compound: CC(=O)C1C(=O)NC(=O)NC1=O [BA20]
- MIC80 [1]: > 125 µg/mL
- MIC80 [2]: > 125 µg/mL

Compound: O=C1NC(=O)C(C=Nc2ccccc2O)C(=O)N1 [BA93]
- inhibitory activity of Candida albicans ([1]; Schiff base derivatives, Table 5): showed inhibitory activity
- MIC80 C. albicans ([1]; Table 5, values marked *: compound displayed MIC with <50% inhibition): 8* μg/mL
- MIC80 C. glabrata [2, 4]: — (none of the 5-acyl-2,4,6-pyrimidinetriones, 5-alkylated pyrimidinetriones or the 5,5-dialkylated pyrimidinetriones showed antifungal activity through 125 μg/mL)

Compound: O=C1NC(=O)C(C(=NNc2ccc(C(=O)O)cc2)C2C(=O)NC(=O)NC2=O)C(=O)N1 [BA38]
- MIC80 C. albicans [1, 5]: — (none of the 5-acyl-2,4,6-pyrimidinetriones, 5-alkylated pyrimidinetriones or the 5,5-dialkylated pyrimidinetriones showed antifungal activity through 125 μg/mL)
- MIC80 C. glabrata [2, 5]: 125 µg/mL (≈ 300 µM)

Compound: COC(=O)NN=C(c1ccc(O)cc1)C1C(=O)N(C)C(=O)N(C)C1=O [BA36]
- MIC80 C. albicans [1, 7]: — (none of the 5-acyl-2,4,6-pyrimidinetriones, 5-alkylated pyrimidinetriones or the 5,5-dialkylated pyrimidinetriones showed antifungal activity through 125 μg/mL)
- MIC80 C. glabrata [2, 7]: — (none of the 5-acyl-2,4,6-pyrimidinetriones, 5-alkylated pyrimidinetriones or the 5,5-dialkylated pyrimidinetriones showed antifungal activity through 125 μg/mL)

Compound: CN1C(=O)C(C(=O)c2cc([N+](=O)[O-])cc([N+](=O)[O-])c2)C(=O)N(C)C1=O [BA9]
- MIC80 C. albicans [1, 6]: — (none of the 5-acyl-2,4,6-pyrimidinetriones, 5-alkylated pyrimidinetriones or the 5,5-dialkylated pyrimidinetriones showed antifungal activity through 125 μg/mL)
- MIC80 C. glabrata [2, 6]: — (none of the 5-acyl-2,4,6-pyrimidinetriones, 5-alkylated pyrimidinetriones or the 5,5-dialkylated pyrimidinetriones showed antifungal activity through 125 μg/mL)

Compound: CCCCN1C(=O)NC(=O)C(C(=O)c2ccc(O)cc2)C1=O (centres unmarked) [BA12]
- MIC80 C. albicans [1, 6]: — (none of the 5-acyl-2,4,6-pyrimidinetriones, 5-alkylated pyrimidinetriones or the 5,5-dialkylated pyrimidinetriones showed antifungal activity through 125 μg/mL)
- MIC80 C. glabrata [2, 6]: — (none of the 5-acyl-2,4,6-pyrimidinetriones, 5-alkylated pyrimidinetriones or the 5,5-dialkylated pyrimidinetriones showed antifungal activity through 125 μg/mL)

Compound: C/C(=N\CCCCCC(=O)O)C1C(=O)NC(=O)NC1=O [BA29, 6-{(E)-[1-(2,4,6-trioxohexahydropyrimidin-5-yl)ethylidene]amino}hexanoic acid]
- MIC80 [1]: > 125 µg/mL
- MIC80 [2]: > 125 µg/mL

Compound: O=C1NC(=O)N(c2ccccc2)C(=O)C1C(=O)c1ccc(O)cc1 (centres unmarked) [BA13]
- MIC80 C. albicans [1, 6]: — (none of the 5-acyl-2,4,6-pyrimidinetriones, 5-alkylated pyrimidinetriones or the 5,5-dialkylated pyrimidinetriones showed antifungal activity through 125 μg/mL)
- MIC80 C. glabrata [2, 6]: — (none of the 5-acyl-2,4,6-pyrimidinetriones, 5-alkylated pyrimidinetriones or the 5,5-dialkylated pyrimidinetriones showed antifungal activity through 125 μg/mL)

Compound: CN1C(=O)C(C(=O)c2ccc(O)cc2)C(=O)N(C)C1=O [BA11]
- MIC80 C. albicans [1, 6]: — (none of the 5-acyl-2,4,6-pyrimidinetriones, 5-alkylated pyrimidinetriones or the 5,5-dialkylated pyrimidinetriones showed antifungal activity through 125 μg/mL)
- MIC80 C. glabrata [2, 6]: — (none of the 5-acyl-2,4,6-pyrimidinetriones, 5-alkylated pyrimidinetriones or the 5,5-dialkylated pyrimidinetriones showed antifungal activity through 125 μg/mL)

Compound: O=C1NC(=O)C(C(=O)c2ccc([N+](=O)[O-])cc2)C(=O)N1 [BA6]
- MIC80 C. albicans [1, 6]: — (none of the 5-acyl-2,4,6-pyrimidinetriones, 5-alkylated pyrimidinetriones or the 5,5-dialkylated pyrimidinetriones showed antifungal activity through 125 μg/mL)
- MIC80 C. glabrata [2, 6]: — (none of the 5-acyl-2,4,6-pyrimidinetriones, 5-alkylated pyrimidinetriones or the 5,5-dialkylated pyrimidinetriones showed antifungal activity through 125 μg/mL)

Compound: O=C1NC(=O)C(CC2CCC(O)CC2)C(=O)N1 (centres unmarked) [BA64]
- MIC80 C. albicans [1, 3]: — (none of the 5-acyl-2,4,6-pyrimidinetriones, 5-alkylated pyrimidinetriones or the 5,5-dialkylated pyrimidinetriones showed antifungal activity through 125 μg/mL)
- MIC80 C. glabrata [2, 3]: — (none of the 5-acyl-2,4,6-pyrimidinetriones, 5-alkylated pyrimidinetriones or the 5,5-dialkylated pyrimidinetriones showed antifungal activity through 125 μg/mL)
